# Earlier results as cited in patent publication US9475808B2, “Inhibitor compounds of phosphodiesterase type 10A” (AbbVie Deutschland GmbH & Co. KG, priority 2013, dated 2016).
# Columns and labels:
# rats [1] = conditions: cited from earlier work
# rats [2] = conditions: cited from earlier work; remark: listed apart in the source
compound,measurement,setting,value
"COc1ccc(Cc2nccc3cc(OC)c(OC)cc23)cc1OC [Papaverine, papaverine]",catalepsy on its own,rats [1]; alone,did not cause catalepsy on its own
same,cataleptic effect of the D2 receptor antagonist haloperidol,rats [1]; with haloperidol,potentiated the cataleptic effect
same,hyperactivity induced by PCP,rats [2]; PCP-induced,reduced hyperactivity
same,reduction of amphetamine-induced hyperactivity,rats [2]; amphetamine-induced,insignificant
